Reference: patent publication US12213483B1, “Herbicidal compositions comprising trifludimoxazin” (BASF SE, priority 2024, dated 2025)
“And” between values parts separate entries of the source, which are not always exact repeats. Identical values can stand only once.

Assays:
Type in all cases: in vivo
[1] = tested on: Abutilon theophrasti (ABUTH); test: Post-emergence application in greenhouse trials, ABUTH
Description: (§1) In the examples below, using the method of S. R. Colby (1967) “Calculating synergistic and antagonistic responses of herbicide combinations”, Weeds 15, p. 22ff., the value E, which is expected if the activity of the individual active compounds is only additive, was calculated: E=X+Y−(X·Y/100) • where • X=percent activity using active herbicide A at an application rate a; • Y=percent activity using active trifludimoxazin at an application rate b; • E=expected activity (in %) by A+B at application rates a+b.
(§2) If the value found experimentally is higher than the value E calculated according to Colby, a synergistic effect is present.
(§3) The culture containers used were plastic pots containing loamy sand with approximately 3.0% of humus as substrate. The seeds of the test plants were sown separately for each species.
(§4) For the post-emergence treatment, the test plants were grown to a plant height of from 3 to 15 cm, depending on the plant habit, and only then treated with the active compounds which had been suspended or emulsified in water. To this end, the test plants were either sown directly, and grown in the same containers, or they were first grown separately as seedlings and transplanted into the test containers a few days prior to treatment.
(§5) Depending on the species, the plants were kept at 10-25° C. and 20-35° C., respectively.
(§6) The test period extended over 2 to 4 weeks. During this time, the plants were tended and their response to the individual treatments was evaluated.
(§7) Evaluation was carried out using a scale from 0 to 100. 100 means no emergence of the plants, or complete destruction of at least the above-ground parts, and 0 means no damage or normal course of growth. A good herbicidal activity is given at values of at least 70, and very good herbicidal activity is given at values of at least 85.
(§8) In the greenhouse trials, unless indicated otherwise, herbicide A, trifludimoxazin and saflufenacil were formulated (50 g/I) and applied with addition of 1% MSO (methylated seed oil) as adjuvant. The solvent used was water (200 I/ha).

[2] = tested on: Commelina benghalensis (COMBE); test: Post-emergence application in greenhouse trials, COMBE; conditions: 20 DAT; growth stage 21; 0.9 g ai/ha
Description: as §1, §2, §3, §4, §5, §6, §7, §8

Kochia scoparia (KCHSC) = test: Post-emergence application in greenhouse trials, KCHSC
Description: as §1, §2, §3, §4, §5, §6, §7, §8

Avena fatua (AVEFA) [3] = test: Post-emergence application in greenhouse trials, AVEFA; conditions: 20 DAT; growth stage 13; 0.3 g ai/ha
Description: as §1, §2, §3, §4, §5, §6, §7, §8

[4] = tested on: Digitaria sanguinales (DIGSA); test: Post-emergence application in greenhouse trials, DIGSA; conditions: 7 DAT; GS 12; C-1 0.3 g ai/ha
Description: as §1, §2, §3, §4, §5, §6, §7, §8

Setaria viridis (SETVI) = test: Post-emergence application in greenhouse trials, SETVI
Description: as §1, §2, §3, §4, §5, §6, §7, §8

[5] = tested on: Sorghum halapense (SORHA); test: Post-emergence application in greenhouse trials, SORHA; conditions: 20 DAT; growth stage 14; 0.9 g ai/ha
Description: as §1, §2, §3, §4, §5, §6, §7, §8

[6] = tested on: Lolium multiflorum (LOLMU); test: Post-emergence application in greenhouse trials, LOLMU; conditions: 20 DAT; growth stage 13; 0.3 g ai/ha
Description: as §1, §2, §3, §4, §5, §6, §7, §8

Hordeum vulgare (HORVS) = test: Post-emergence application in field trials, HORVS; conditions: 29 DAT; water volume 100 l/ha; pre plant burndown; growth stage 15-24; height 25-45 cm; 18 g ai/ha
Description: as §1, §2
(§9) On field test sites, natural weed infestation or seeded weeds were treated post-emergence of the weeds.
(§10) In the field trials, the weedy plants were treated as indicated below.
(§11) Herbicide A-1 (342 g/I), trifludimoxazin (500 g/I) and saflufenacil (342 g/I) were, together with addition of 1% MSO (methylated seed oil) as adjuvant (unless indicated otherwise), formulated in water as distribution medium as indicated and sprayed with commercial flat fan nozzles.
(§12) In the following experiments, the herbicidal activity for the individual herbicidal compositions (solo and mixture applications) was assessed at the indicated days after treatment (DAT). The assessments for the damage on undesired weeds caused by the composition was carried out using a scale from 0 to 100%, compared to the untreated control plants. Here, 0 means no damage and 100 means complete destruction of the plants.
(§13) Herbicide A-1 (100 g/l) and trifludimoxazin (500 g/l) were, together with addition of 1% MSO (methylated seed oil) as adjuvant (unless indicated otherwise), formulated in water as distribution medium as indicated and sprayed with commercial flat fan nozzles.

Avena fatua (AVEFA) [7] = test: Post-emergence application in field trials, AVEFA; conditions: 29 DAT; water volume 100 l/ha; pre plant burndown; growth stage 14-23; height 24-40 cm; 18 g ai/ha
Description: as §1, §2, §9, §10, §11, §12, §13

CC(C)N(C)S(=O)(=O)NC(=O)c1cc(-n2c(=O)cc(C(F)(F)F)n(C)c2=O)c(F)cc1Cl [C-1, saflufenacil]
% Herbicidal activity ([1]; 6 DAT, GS 33, C-1 1.1 g ai/ha): 45% | % Herbicidal activity ([1]; 20 DAT, growth stage 33, 1.1 g ai/ha): 0% | % Herbicidal activity [2]: 80% | % Herbicidal activity (Kochia scoparia (KCHSC); 6 DAT, GS 33, C-1 0.5 g ai/ha): 60% | % Herbicidal activity (Kochia scoparia (KCHSC); 20 DAT, growth stage 33, 0.5 g ai/ha): 40% | % Herbicidal activity (Kochia scoparia (KCHSC); 20 DAT, growth stage 33, 0.9 g ai/ha): 60% | % Herbicidal activity (Avena fatua (AVEFA) [3]): 0% | % Herbicidal activity [4]: 10% and 15% | % Herbicidal activity (Setaria viridis (SETVI); 7 DAT, GS 14, C-1 0.9 g ai/ha): 35% | % Herbicidal activity (Setaria viridis (SETVI); 20 DAT, growth stage 14, 0.9 g ai/ha): 35% | % Herbicidal activity [5]: 0% | % Herbicidal activity [6]: 0% | % Herbicidal activity (Hordeum vulgare (HORVS)): 0% | % Herbicidal activity (Avena fatua (AVEFA) [7]): 0%
